Publication PMC5688144, “Assay interference and off-target liabilities of reported histone acetyltransferase inhibitors” (Nature Communications, 2017)
“Also recorded” adds a separate entry of the source. Where two headings read alike, the source gives them in different places.

Tests used:
[1] = biological target: T1, human La antigen (Homo sapiens, UniProt P05455, T302N); assay: ALARM NMR; type: binding; conditions: 400 μM compound; for ALARM NMR, (-) DTT: 0 mM DTT; for ALARM NMR, (+) DTT: DTT present; for ALARM NMR interpretation: with and without DTT; for ALARM NMR readout: overall readout
T1 construct: amino acids 100–324 of the human La antigen (plus T302N mutation); 6xHis (N); 6xHis (C); host or cells: Escherichia coli Rosetta cells
T1 sequence (P05455 100-324 T302N): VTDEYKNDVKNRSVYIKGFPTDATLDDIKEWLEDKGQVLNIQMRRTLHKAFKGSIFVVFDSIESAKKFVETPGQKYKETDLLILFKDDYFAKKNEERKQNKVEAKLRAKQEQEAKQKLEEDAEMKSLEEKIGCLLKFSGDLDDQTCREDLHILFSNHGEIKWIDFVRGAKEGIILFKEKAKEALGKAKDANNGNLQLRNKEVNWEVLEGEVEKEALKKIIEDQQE
Description: The gene encoding amino acids 100–324 of the human La antigen (plus T302N mutation) was cloned into pET28b + vector (Novagen) with both an N- and C-terminal 6xHis tag (addgene.org, plasmid ID 90209). The sequence identity of the ALARM NMR plasmid construct was verified by Sanger sequencing of the transgene region and next-generation sequencing of the whole plasmid.
Plasmid was transformed into Escherichia coli Rosetta cells (Novagen) and cultured in M9 minimal media. The La antigen was labeled by adding ^13C-labeled amino acid precursors ([3-^13C]-α-ketobutyrate and [3,3′-^13C]-α-ketoisovalerate sodium salts; Cambridge Isotope Laboratories; 250 mg L^−1 final concentrations) to culture medium 30 min before induction with IPTG (1 mM final concentration). Bacteria were collected after incubation at 25 °C for 8 h and washed with ice-cold phosphate-buffered saline (PBS). Washed cells were lysed by French press in ice-cold lysis buffer (50 mM Tris, pH 7.6, 300 mM NaCl, 10% glycerol (v/v), 5 mM β-mercaptoethanol (BME), 5 mM imidazole, 2 mM MgCl2, benzonase, and protease inhibitor cocktail), followed by an additional brief sonication step (3 × 15 s pulse sequence) on ice. This lysed solution was centrifuged (30,000×g for 30 min, two cycles) to remove cellular debris, then loaded onto a pre-washed Ni-NTA bead column (Qiagen) kept at 4 °C and washed with buffer (50 mM Tris, pH 7.6, 300 mM NaCl, 10% glycerol (v/v), 5 mM BME, 5 mM imidazole). The La antigen was eluted with an elution buffer (50 mM Tris, pH 7.6, 300 mM NaCl, 10% glycerol (v/v), 5 mM BME, imidazole gradient ranging from 5 mM to 0.5 M). […] Aliquots were flash-frozen in liquid N2 and stored at −80 °C until further use. Before use, aliquots of ~150 μM protein were incubated in the presence of 20 mM DTT at 37 °C for 1 h, then dialyzed (25 mM sodium phosphate buffer, pH 7.0 (no DTT)) in 16 h cycles at 4 °C with constant nitrogen bubbling and with gentle stirring, for three total buffer cycles.
For standard testing conditions, the [^1H-^13C]-HMQC spectra were acquired in 25 mM sodium phosphate buffer, pH 7.0, 10% D2O (v/v; CIL) ± 400 μM test compounds delivered from the aforementioned stock solutions, and ± 20 mM non-deuterated DTT. Final concentration of DMSO was 4.0% (v/v). Reaction solutions were mixed, then centrifuged for 5 min (1000×g) in non-binding 384-well microplates at RT, then incubated at 37 °C for 1 h and then 30 °C for 15 h before obtaining spectra. Samples were checked for evidence of gross precipitation. Data were recorded at 298 K on a Bruker UltraShield 700 MHz NMR spectrometer equipped with a Bruker 1.7 mm TCI Cryoprobe and Bruker SampleJet autosampler. Samples were tested at 50 μM protein concentrations using 16 scans, 2048 complex points in F2, and 80 points in F1 using standard protein [^1H-^13C]-HMQC and water suppression pulse sequences.
Data were analyzed in TopSpin™ 3.5 (Bruker). Reactions were normalized to equivalent DMSO controls. Non-reactive compounds were identified by the absence of chemical shifts or changes in peak intensities (^13C-methyl) ± 20 mM DTT.

[2] = test system: GCN5; conditions: cited from earlier work
[3] = biological target: T2, PCAF (Homo sapiens, UniProt Q92831); conditions: cited from earlier work
T2 construct: Reaction Biology Corporation (assays run by this contract lab)

[4] = original report, 27 (Supplementary References)
[5] = original report, 22 (Supplementary References)
[6] = @ 10 µM, ref 5 (Supplementary References)
[7] = @ 5 µM, ref 16 (Supplementary References)

T2 sequence (Q92831 whole entry, species assumed): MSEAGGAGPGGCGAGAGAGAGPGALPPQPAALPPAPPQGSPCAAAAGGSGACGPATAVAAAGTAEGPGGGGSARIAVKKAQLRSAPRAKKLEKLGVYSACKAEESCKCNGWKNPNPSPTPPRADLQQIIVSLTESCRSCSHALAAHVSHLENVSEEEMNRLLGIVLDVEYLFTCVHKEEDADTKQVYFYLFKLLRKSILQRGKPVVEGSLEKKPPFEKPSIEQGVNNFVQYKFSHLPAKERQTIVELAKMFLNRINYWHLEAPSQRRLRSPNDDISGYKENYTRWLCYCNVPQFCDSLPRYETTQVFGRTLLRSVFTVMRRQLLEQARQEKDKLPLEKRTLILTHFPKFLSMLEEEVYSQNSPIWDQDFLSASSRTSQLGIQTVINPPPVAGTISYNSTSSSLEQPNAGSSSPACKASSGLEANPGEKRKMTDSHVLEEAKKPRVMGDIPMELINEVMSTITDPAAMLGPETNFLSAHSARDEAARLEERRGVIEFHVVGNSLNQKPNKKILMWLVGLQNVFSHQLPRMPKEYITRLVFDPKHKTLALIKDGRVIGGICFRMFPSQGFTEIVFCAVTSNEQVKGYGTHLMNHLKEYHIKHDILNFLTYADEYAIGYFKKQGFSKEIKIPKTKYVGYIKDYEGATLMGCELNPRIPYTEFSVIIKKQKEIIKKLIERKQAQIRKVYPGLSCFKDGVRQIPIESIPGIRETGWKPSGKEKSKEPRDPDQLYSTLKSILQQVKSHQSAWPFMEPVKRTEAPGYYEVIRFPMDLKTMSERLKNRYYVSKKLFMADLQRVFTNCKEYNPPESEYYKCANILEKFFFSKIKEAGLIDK

Row | Compound | ALARM NMR, (-) DTT [1] | ALARM NMR, (+) DTT [1] | ALARM NMR interpretation [1] | also measured
1 | CCCCCCCCCCCCCCCc1cccc(O)c1C(=O)O [Compound 14, Anacardic acid] | Positive | Positive | Nonspecific perturbation | –
2 | COc1cc(/C=C/c2cc(/C=C/c3ccc(O)c(OC)c3)n(-c3ccc(C(=O)[O-])cc3)n2)ccc1O.[Na+] [Compound 17, CTK7A] | Positive | Positive | several new peaks independent of DTT; also recorded: Nonspecific perturbation (new peaks) | % inhibition, GCN5 ([2]; @ 40 µM, ref 21 (Supplementary References)): 40%
3 | O=C(O[C@@H]1Cc2c(O)cc(O)cc2O[C@@H]1c1cc(O)c(O)c(O)c1)c1cc(O)c(O)c(O)c1 [Compound 10, (-)-Epigallocatechin gallate] | Positive | Negative | Thiol-reactive | –
4 | Cc1cc2c(C(C)C)c(O)c(O)c(C=O)c2c(O)c1-c1c(C)cc2c(C(C)C)c(O)c(O)c(C=O)c2c1O [Compound 16, Gossypol] | Positive | Positive | nonspecific protein perturbation | IC50 [3, 4]: ~50 µM
5 | COc1ccc(/C(Cl)=C(/C=O)c2ccc(OC)cc2)cc1 [Compound 18, Windorphen] | Negative | Negative | Inert as tested | IC50 [2, 5]: > 100 µM; IC50 [3, 4]: > 100 µM; ALARM NMR readout [1]: negative
6 | CCCCCCCc1ccc(CCc2cccc(O)c2C(=O)O)cc1 [Compound 15, MG 149] | Positive | Positive | nonspecific protein perturbation; also recorded: potential aggregator | % inhibition, PCAF ([3]; @ 200 µM, ref 19 (Supplementary References)): 3%
7 | CC1=NN(c2ccc(C(=O)O)cc2)C(=O)/C1=C/c1ccc(-c2cc(C)c(C)cc2[N+](=O)[O-])o1 [Compound 1, C646] | positive | Negative | Thiol-reactive | % inhibition, GCN5 [2, 6]: < 10%; % inhibition, PCAF [3, 6]: < 10%
8 | Clc1ccc(-c2csc(NN=C3CCCC3)n2)cc1 [Compound 7, CPTH2] | Positive | Negative | Thiol-reactive | IC50 [2, 5]: ~500 µM
9 | CCCC1(c2ccccc2)NC(=O)N(CC(=O)N(C)Cc2c(F)cccc2Cl)C1=O (stereo not drawn) [Compound 21, N-[(2-chloro-6-fluorophenyl)methyl]-2-(2,5-dioxo-4-phenyl-4-propylimidazolidin-1-yl)-N-methylacetamide] | Negative | Negative | Inert as tested | % inhibition, GCN5 ([2]; @ 100 µM, ref 25 (Supplementary References)): < 25%
10 | Garcinol [Compound 13] | Positive | Positive | Nonspecific perturbation | –
11 | O=c1c2cccnc2sn1Cc1ccc(C(F)(F)F)cc1 [Compound 3, PU141] | Positive | Negative | Thiol-reactive | IC50 ([3]; H4 peptide substrate, ref 7 (Supplementary References)): 35.5 µM
12 | Cc1cc(O)cc(C)c1C=C1C(=O)N(Cc2ccccc2)C(=O)N(Cc2ccccc2)C1=O [Compound 4, EML425] | Positive | Negative | Thiol-reactive | ALARM NMR readout [1]: positive
13 | Cl.Cl.O=C(O)Cn1nnc(-c2ccc(CN(CCCCOc3ccc(CN4CCCC4)cc3)CCc3ccccc3)cc2)n1 [Compound 20, TH1834] | Negative | Negative | Inert as tested | –
14 | COc1cc(/C=C/C(=O)CC(=O)/C=C/c2ccc(O)c(OC)c2)ccc1O [Compound 11, Curcumin] | Partial | Negative | Equivocal | % inhibition, PCAF ([3]; @ 100 µM, ref 15 (Supplementary References)): < 10%
15 | C=C1C(=O)O[C@H](CCC)[C@H]1C(=O)O [Compound 6, MB-3] | Positive | Negative | Thiol-reactive | IC50 [2, 5]: 100 µM
16 | Plumbagin [Compound 8] | Positive | Negative | Thiol-reactive | % inhibition, PCAF ([3]; @ 50 µM, 23 (Supplementary References)): ~ 50%
17 | O=C1/C(=C/c2ccc(O)c(Br)c2)CCC/C1=C\c1ccc(O)c(Br)c1 [Compound 12, HAT inhibitor II] | Partial | Negative | Equivocal | % inhibition, GCN5 [2, 7]: 30%; % inhibition, PCAF [3, 7]: < 1%
18 | COc1ccc(S(=O)(=O)ON=C2C=C(C)C(=O)C(C)=C2)cc1 [Compound 5, L002] | Positive | Negative | Thiol-reactive | IC50 ([2]; HotSpot assay, ref 9 (Supplementary References)): 33.9 µM
19 | CCCCCCCCCCCC1=C(O)C(=O)C=C(O)C1=O [Compound 9, Embelin] | Positive | Positive | Thiol-reactive, nonspecific perturbation | –
